Experimental findings from US10689384B2, “Imidazo[1,2-a]quinoxalines and derivatives thereof for the treatment of cancer” (Universite de Montpellier, priority 2014, dated 2020) are described below.

Broadly, the EC50 is the concentration that produces a half-maximal response. The IC50 is the concentration needed to halve the response being measured. Higher therefore signals weaker potency.

For experiment [1], the system named is A2058. Kind of experiment: In vitro cytotoxicity study, inhibition of cell growth (MTT). In kind it is cell-based. The following applies: Homo sapiens, A2058, melanoma, 72 hours. As to the method: (§1) The goal of this protocol is to study the effects of the compounds on the proliferation of various human cancer cell lines in order to evaluate the EC50 and their activity in cellulo.
(§2) The cells are seeded the day before treatment in 96 well plates. Each compound concentration is tested in triplicate. A 96 well plate can contain 3 compounds.
(§3) Cell suspensions for each cancer cell line are prepared in culture medium with a specific density of the specific cell (see the following table). Then, 100 µL of cell suspension is spread per well (plate per one cell line).
(§4) Stock solutions of the tested compounds are prepared at 10 mM in 100% DMSO and stored at […].
(§5) The analysis is carried out by using the GraphPad PRISM 5.0 software.
(§6) Day 1: the cells are seeded one day before treatment with the compounds in 96 well plates. Cell suspensions for each cancer cell line are prepared with a specific density in a specific culture medium (see preceding table). Next, 100 µL of cell suspension is distributed per well (1×96 well plate per cell line).
(§7) Day 2: 24 hours later, the […] compounds or controls (DMSO) are added to the cells ([…] of a compound solution in its specific medium with a final DMSO concentration of 0.15%).
(§8) Each compound concentration is tested in triplicate (6 concentrations between 10^−9 M and 10^−5 M per compound). The cells are incubated at 37° C. for 72 hours with no new treatment.
(§9) Day 5: 15 minutes before incubation of the cells with MTT (3-[4,5-dimethylthiazol-2-yl]-2,5-diphenyltetrazolium bromide), 10% SDS is added to the control wells to obtain a final concentration of 1%. The positive control of inhibition of proliferation is 1% SDS.
(§10) Once the medium is removed, 100 µL of a solution of MTT in fresh medium is added to each well (10 μL of 10×MTT solution at 5 mg/mL in PBS +[…] of fresh medium) and the plates are incubated for 4 hours at 37° C.
(§11) The MTT reaction is quenched and the medium is homogenized by addition of […] of 10% SDS/0.01 M HCl solution placed in each well. The medium is incubated for 2 hours at 37° C. before measuring its absorbance. Absorbance is measured at 570 nm.

The test system of experiment [2] is A375. The description is as above. In kind it is cell-based. As to conditions: Homo sapiens, A-375, A375, melanoma, 72 hours. Here is the method:
as §1, §2, §3, §4, §5, §6, §7, §8, §9, §10, §11

Experiment [3] deals with AsPC-1. The experiment is described as above. It is filed as cell-based. As to conditions: Homo sapiens, ASPC1, AsPC-1, pancreas, 72 hours. As to the method: as §1, §2, §3, §4, §5, §6, §7, §8, §9, §10, §11
Experiment [4] has as its system BxPC3. Described as above. It is filed as cell-based. As to conditions: Homo sapiens, BXPC-3, BxPC3, pancreas, 72 hours. Here is the method: as §1, §2, §3, §4, §5, §6, §7, §8, §9, §10, §11
The test system of experiment [5] is CFPAC-1. The description is as above. The following applies: Homo sapiens, CFPAC-1, pancreas, 72 hours. It is filed as cell-based. Here is the method: as §1, §2, §3, §4, §5, §6, §7, §8, §9, §10, §11
Experiment [6] concerns COLO-205. Described as above. In kind it is cell-based. As to conditions: Homo sapiens, COLO-205, colon, 72 hours. As to the method: as §1, §2, §3, §4, §5, §6, §7, §8, §9, §10, §11
The subject of experiment [7] is Calu-1. The experiment is described as above. In kind it is cell-based. The following applies: Homo sapiens, Calu-1, lung, 72 hours. Here is the method: as §1, §2, §3, §4, §5, §6, §7, §8, §9, §10, §11
The test system of experiment [8] is Capan-1. The description is as above. In kind it is cell-based. The following applies: Homo sapiens, Capan-1, pancreas, 72 hours. As to the method:
as §1, §2, §3, §4, §5, §6, §7, §8, §9, §10, §11

In experiment [9] the test system is HepG2. The description is as above. In kind it is cell-based. The following applies: Homo sapiens, HepG2, liver, 72 hours. As to the method:
as §1, §2, §3, §4, §5, §6, §7, §8, §9, §10, §11

In experiment [10] the test system is IPC298. Described as above. It is filed as cell-based. As to conditions: Homo sapiens, IPC-298, IPC298, melanoma, 72 hours. As to the method:
as §1, §2, §3, §4, §5, §6, §7, §8, §9, §10, §11

Experiment [11] has as its system LoVo. The experiment is described as above. In kind it is cell-based. As to conditions: Homo sapiens, colon, 72 hours. As to the method: as §1, §2, §3, §4, §5, §6, §7, §8, §9, §10, §11
For experiment [12], the system named is MEWO. The description is as above. The following applies: Homo sapiens, melanoma, 72 hours. In kind it is cell-based. As to the method: as §1, §2, §3, §4, §5, §6, §7, §8, §9, §10, §11
The test system of experiment [13] is PC-3. The experiment is described as above. It is filed as cell-based. As to conditions: Homo sapiens, PC-3, prostate, 72 hours. As to the method:
as §1, §2, §3, §4, §5, §6, §7, §8, §9, §10, §11

The subject of experiment [14] is PF382. The experiment is described as above. It is filed as cell-based. As to conditions: Homo sapiens, PF-382, PF382, lymphoid, 72 hours. As to the method: as §1, §2, §3, §4, §5, §6, §7, §8, §9, §10, §11
For experiment [15], the system named is T-47D. The description is as above. In kind it is cell-based. As to conditions: Homo sapiens, T47D, breast, 72 hours. As to the method: as §1, §2, §3, §4, §5, §6, §7, §8, §9, §10, §11
The test system of experiment [16] is human cancer cell lines. Kind of experiment: In vitro cytotoxicity study, Summarized results 2 (cell line not given). It is filed as cell-based. As to conditions: Homo sapiens, Table 4, Summarized results 2; cell line not stated. As to the method:
as §1, §2, §4, §5, §6, §7, §8, §9, §10, §11

Experiment [17] has as its target T1, purified tubulin (Sus scrofa, UniProt P02550+P02554).
T1 construct: Tubulin is prepared from pig brain; from tissue; host or cells: pig brain
The experiment can be described thus: Effect on the polymerization of purified tubulin (turbidimetry at 350 nm). It is filed as biochemical, pig. As to conditions: 2.4 μM tubulin, 37° C. As to the method: FIG. 1. Study of the innovative effect of compounds of the selection patent on the polymerization of purified tubulin. This is a comparative study of the effect on the polymerization of purified tubulin by compounds of the selection patent compared to that of the compounds of the patent FR 2,921,927. Polymerized tubulin absorbs at 350 nm.
Tubulin is prepared from pig brain according to the purification process described by Williams and Lee (1982). Tubulin polymerization is monitored by turbidimetry at 350 nm with an MC2 spectrophotometer (Safas, Monaco) equipped with a heat-jacketed cuvette holder. The reaction mixture was prepared at 0° C., and contains PEM buffer, 25% glycerol (v/v), 1 mM GTP, and 2.4 μM tubulin. The GTP and the tubulin are added at the last minute. […] The same volume of DMSO alone was used as a negative control. The final volume of the sample is […]. The reaction is initiated by placing the cuvette in the cell compartment of the spectrophotometer thermostated at 37° C. Ice is added 45 minutes later to launch depolymerization in order to confirm the specificity of the signal.

Some results are limits rather than exact numbers.

T1 sequence (P02550 whole entry): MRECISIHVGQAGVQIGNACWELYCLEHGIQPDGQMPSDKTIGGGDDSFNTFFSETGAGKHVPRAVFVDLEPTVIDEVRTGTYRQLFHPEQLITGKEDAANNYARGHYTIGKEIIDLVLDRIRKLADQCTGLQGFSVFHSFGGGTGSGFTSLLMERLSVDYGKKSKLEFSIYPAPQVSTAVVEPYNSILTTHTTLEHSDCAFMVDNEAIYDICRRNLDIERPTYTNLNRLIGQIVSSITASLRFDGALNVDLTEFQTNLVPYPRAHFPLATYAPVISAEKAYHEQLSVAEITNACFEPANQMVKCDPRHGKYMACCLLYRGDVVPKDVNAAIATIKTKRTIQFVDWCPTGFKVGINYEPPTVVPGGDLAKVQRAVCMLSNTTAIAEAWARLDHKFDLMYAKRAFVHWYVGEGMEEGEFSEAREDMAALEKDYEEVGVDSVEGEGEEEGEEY
T1 sequence (P02554 whole entry): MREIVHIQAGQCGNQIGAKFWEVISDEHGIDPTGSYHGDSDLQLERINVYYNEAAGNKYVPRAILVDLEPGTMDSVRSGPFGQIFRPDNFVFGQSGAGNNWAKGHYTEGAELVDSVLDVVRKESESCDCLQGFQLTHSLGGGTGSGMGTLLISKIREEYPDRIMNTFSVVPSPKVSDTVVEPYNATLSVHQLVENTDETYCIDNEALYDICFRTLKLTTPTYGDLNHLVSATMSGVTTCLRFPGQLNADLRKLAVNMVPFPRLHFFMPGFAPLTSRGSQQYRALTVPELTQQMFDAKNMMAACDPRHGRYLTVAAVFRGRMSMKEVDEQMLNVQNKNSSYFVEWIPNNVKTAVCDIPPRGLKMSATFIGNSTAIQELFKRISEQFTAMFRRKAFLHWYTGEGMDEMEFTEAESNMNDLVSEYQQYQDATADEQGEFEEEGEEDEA

`CNc1nc2ccccc2n2c(-c3ccc(O)c(O)c3)cnc12` [EAPB 02303, 1-(3,4-Dihydroxyphenyl)-N-methylimidazo[1,2-a]quinoxalin-4-amine]: the half-maximal effective concentration (EC50) in experiment [1] was 4 nM; in [2], 10 nM; in experiment [3], 957 nM; in experiment [4] it was 11 nM; in [5] it was 12 nM; in experiment [6], 38 nM. In addition, the half-maximal effective concentration (EC50) in experiment [7] was found to be 4 nM; in experiment [8] it was 154 nM; in experiment [9], 247 nM; in experiment [10], 40 nM; in [11], 45 nM; in [12] it was 3 nM. In addition, the EC50 in experiment [13] was determined as 12 nM; in [14] it was 7 nM; in [15], 13 nM. The IC50 in [16] is < 3 nM. Besides, the “Effect on polymerization of purified tubulin (absorbance level at 350 nm)” value in experiment [17] is “leaves it unchanged”.
